Columns and labels:
Test in all cases: relative viability (nuclei count vs DMSO), 5 days (fraction); higher = more cells survive
[1] = compound: CN1CCN(CC1)C2=CC(=C(C=C2)NC3=NC(=C(S3)C(=O)C4=C(C=CC=C4Cl)Cl)N)OC [XMD14-99]
Procedure, shortened: (§1)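 Lung cancer cell lines received five library-drug doses (not always all listed) spaced by √10, pinned on vehicle-anchored 1536-well plates after an overnight stay at 37 °C. Five days later, with no medium change, nuclei were Hoechst-stained, imaged at 4× and counted with MetaXpress. Viability is treated-well nuclei relative to vehicle-well nuclei, as a median across plates. Passing plates had control CV below 25% and at least one doubling.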

[2] = compound: N[C@@H]1CCCN(c2c(/C=C3\SC(=O)NC3=O)cccc2-c2ccccc2)C1 [AZD1208]
Procedure, shortened: as §1

[3] = compound: CN1CCN(CC1)C2=CC(=C(C=C2)NC3=NC(=C(S3)C(=O)C4=C(C=CC=C4Cl)Cl)N)OC [XMD14-99] + CC1(C)CCC(c2ccc(Cl)cc2)=C(CN2CCN(c3ccc(C(=O)NS(=O)(=O)c4ccc(N[C@H](CCN5CCOCC5)CSc5ccccc5)c(S(=O)(=O)C(F)(F)F)c4)cc3)CC2)C1 [Navitoclax] (partner 0.5 µM)
Procedure, shortened: (§2)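 A single step with final 0.05% Triton X-100, 1% formaldehyde and 1 ug/ml Hoechst fixed the cells and stained nuclei 5 days after treatment. Lung cancer cell lines in 1536-well plates had been treated by pin tool the day after seeding with one drug alone or a fixed anchor-drug dose plus five library-drug doses (not always all listed) in √10 steps, and nuclei were counted on 4× images. Relative viability is the ratio of nuclei in treated wells to nuclei in vehicle wells, taken as the median of duplicate plates.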

[4] = compound: CN1CCN(CC1)C2=CC(=C(C=C2)NC3=NC(=C(S3)C(=O)C4=C(C=CC=C4Cl)Cl)N)OC [XMD14-99] + COc1cc2c(Oc3ccc(NC(=O)C4(C(=O)Nc5ccc(F)cc5)CC4)cc3F)ccnc2cc1OCCCN1CCOCC1 [Foretinib] (partner 0.25 µM)
Procedure, shortened: as §2

Cell Line	relative viability ([1]; 0.08 µM)	relative viability ([1]; 0.8 µM)	relative viability ([1]; 2.53 µM)	relative viability ([1]; 8 µM)	relative viability ([2]; 0.08 µM)	relative viability ([2]; 0.253 µM)	relative viability ([2]; 0.8 µM)	relative viability ([2]; 2.53 µM)	relative viability ([2]; 8 µM)	relative viability ([3]; first compound 0.08 µM)	relative viability ([3]; first compound 0.8 µM)	relative viability ([3]; first compound 2.53 µM)	relative viability ([3]; first compound 8 µM)	relative viability ([4]; first compound 0.08 µM)	relative viability ([4]; first compound 0.8 µM)	relative viability ([4]; first compound 2.53 µM)	relative viability ([4]; first compound 8 µM)
NCI-H1993	0.89	0.987	0.872	0.806	0.931	0.779	0.808	0.818	0.733	0.978	0.922	0.796	0.694	0.804	0.674	0.643	0.595
LU99A	0.982	1.03	0.896	0.8	0.974	0.963	0.921	0.878	0.807	0.766	0.776	0.786	0.725	0.893	0.872	0.729	0.649
NCI-H1355	0.996	0.999	0.89	0.825	1.03	0.983	0.908	0.876	0.789	0.87	0.863	0.782	0.778	0.994	0.913	0.808	0.706
HCC-78	0.985	0.841	0.883	0.571	1.02	1.02	0.963	1.02	1.06	0.657	0.729	0.794	0.622	0.506	0.489	0.566	0.53
HCC-15	1.02	1.03	0.922	0.759	1.01	1.02	0.879	0.939	0.805	0.663	0.617	0.609	0.494	1.01	1.01	0.9	0.693
EKVX	0.98	0.892	0.954	0.812	0.988	1.11	0.903	1.04	0.972	0.96	0.982	0.841	0.66	0.768	0.888	0.876	0.662
NCI-H2126	0.993	0.991	0.977	0.897	0.998	0.965	0.942	0.866	0.79	0.844	0.797	0.879	0.793	1.19	1.13	1.2	0.832
LK-2	0.914	1.04	1.09	0.913	0.882	0.718	0.63	0.493	0.42	0.767	0.883	1.02	0.91	0.99	1.17	0.991	1.2
NCI-H1437	0.968	0.903	0.814	0.682	1.06	1.13	1.05	1.03	0.939	1.06	1	0.913	0.629	1.25	1.05	1.06	0.891
COR-L23	1.04	0.891	0.946	0.693	0.969	1.12	0.965	0.99	1	0.951	0.894	0.746	0.538	0.901	0.962	0.812	0.572
PC-14	1.02	1.01	0.907	0.646	1.07	1.11	0.923	0.996	0.953	0.983	0.902	0.943	0.726	0.964	0.969	0.864	0.852
A549	0.955	0.97	0.898	0.726	0.957	0.952	0.868	0.934	0.786	1.14	1.13	1.03	0.724	0.899	0.916	0.787	0.693
A-427	1.05	0.939	0.866	0.643	1.1	0.972	0.895	0.962	0.747	0.894	0.954	0.779	0.807	1.04	0.988	0.814	0.712
LCLC-97TM1	0.982	1	0.828	0.571	0.95	0.885	0.813	0.852	0.631	0.43	0.455	0.268	0.382	0.918	0.855	0.918	0.641
NCI-H1703	0.89	0.912	0.91	0.761	0.846	0.881	0.846	0.718	0.654	1.06	1.11	0.933	0.719	0.345	0.329	0.339	0.273
RERF-LC-KJ	0.991	0.938	0.903	0.834	0.998	1.03	0.878	0.935	0.746	1.01	0.829	0.926	0.607	0.462	0.908	0.867	0.803
BEN	0.969	0.988	0.961	0.801	0.954	0.84	0.629	0.709	0.537	0.0784	0.0577	0.0776	0.0694	0.662	0.695	0.705	0.678
NCI-H1666	1	0.922	0.999	0.877	0.992	1.06	0.881	0.942	0.959	0.994	0.771	0.797	0.566	1.02	0.859	0.866	0.712

— the supplement of paper PMC10307832
